# Values quoted from earlier work, collected in publication PMC8395767, “Worsening of the Toxic Effects of (±)Cis-4,4′-DMAR Following Its Co-Administration with (±)Trans-4,4′-DMAR: Neuro-Behavioural, Physiological, Immunohistochemical and Metabolic Studies in Mice” (International Journal of Molecular Sciences, 2021).
# Experiments:
# 5-HT2A = biological target: 5-HT2A; set-up: method as in PMID 29908239; conditions: read-out: Ki at 5-HT2A receptor; cited from earlier work
# 5-HT2C = biological target: 5-HT2C; set-up: method as in PMID 29908239; conditions: read-out: Ki at 5-HT2C receptor; cited from earlier work
# DAT/SERT = tested on: DAT/SERT; set-up: method as in PMID 30776375; conditions: cited from earlier work
# [1] = tested on: dopamine (DAT) transporter; set-up: method as in PMID 30776375, PMID 25331619, PMID 29908239; conditions: in vitro; cited from earlier work
# [2] = tested on: noradrenaline (NET) transporter; set-up: method as in PMID 30776375, PMID 25331619, PMID 29908239; conditions: in vitro; cited from earlier work
# serotonin transporters = tested on: serotonin transporters; set-up: method as in PMID 30776375, PMID 25331619, PMID 29908239; conditions: in vitro; cited from earlier work
# rat brain synaptosomes = tested on: rat brain synaptosomes; set-up: method as in PMID 24841869; conditions: compared with d-amphetamine, aminorex and 4-MAR; cited from earlier work
smiles,measurement,setting,value
"Cc1ccc(C2OC(N)=NC2C)cc1 (stereo not shown) [4,4′-DMAR, 4-Methyl-5-(4-methylphenyl)-4,5-dihydrooxazol-2-amine]",Ki,5-HT2A,~8.9 µM
same,Ki,5-HT2C,~11 µM
same,DAT/SERT ratio,DAT/SERT,0.4
same,Inhibitory activity on dopamine transporter (DAT),[1],potent inhibitory activity
same,Inhibitory activity on noradrenaline transporter (NET),[2],potent inhibitory activity
same,Inhibitory activity on serotonin transporters,serotonin transporters,potent inhibitory activity
same,Release of 5-HT from rat brain synaptosomes,rat brain synaptosomes,most potent releaser
